From patent US8927579B2, “Male contraceptive” (priority 2007, dated 2015)
Structures can show the parent of a compound that is named as a salt.

Columns and labels:
[1] = tested on: circular muscle of human vas deferens; test: IC50 against contractions evoked by high K+ (120 mM) in the presence of FPL 64176, circular muscle rings; conditions: Homo sapiens; contractions evoked by K+ (120 mM) in the presence of FPL 64176 (1 μM); means ± S.E.M.
From the text: (§1) Human vas deferens specimens were obtained after elective vasectomies of healthy fertile men. College ethical approval and the consent of patients were obtained. The specimens were placed in ice-cold Krebs' medium, dissected-free of connective tissue/blood vessels and cut longitudinally into strips (longitudinal muscle preparations; 5-10 mm long & 1 mm wide) or transversely into rings (circular muscle preparations; 3 mm in length). The longitudinal and circular muscle preparations were then set up for tension recording (resting tension 5-7 mN) in a Perspex chamber superfused at 2 ml per min with Krebs' medium (36° C.) composed of (mM): NaCl, 118.8; NaHCO3, 25; KCl, 4.7; CaCl2.2H2O, 2.5; KH2PO4, 1.2; MgSO4.7H2O, 1.2; glucose, 11.1; ascorbic acid 0.1 and continuously gassed with 95% O2 and 5% CO2. Contractile responses were recorded via a Harvard-type force-displacement transducer. The analog signals were digitised using CIO-Das 16/Jr data acquisition software (Amplicon Liveline, Brighton, UK) and re-plotted on a microcomputer.
(§2) Tissues were equilibrated for 180 min in Krebs' medium containing inhibitors of extraneuronal and neuronal reuptake of noradrenaline, oestradiol (1 μM) and desipramine (0.1 μM) respectively, inhibitors of catechol-O-methyltransferase and monoamine oxidase, tropolone (10 μM) and iproniazid (10 μM) respectively and the β-adrenoceptor blocker, propranolol (1 μM). At the end of the equilibration period, the tissues were stimulated with noradrenaline (100 μM). […] After a contact time of 30-40 min in this medium, different experimental protocols (described below) were adopted in order to • (a) Elucidate the contractile actions of L-type Ca^2+ agonists such as FPL 64176 or Bay K 8644. In these experiments, tissues were exposed to FPL 64176 (0.1-10 μM added cumulatively) or in separate experiments Bay K 8644 (0.1-10 μM added cumulatively). • (b) Investigate the effects of various diphenylalkylamines and conventional L-type Ca^2+ antagonists (methoxyverapamil or nifedipine) on contractions evoked by high concentrations of extracellular potassium (high [K^+]o) in the presence of L-type Ca^2+ agonists, FPL 64176 (1 μM) or Bay K 8644 (1 μM). In this protocol, tissues were stimulated with high [K^+]O (10, 30 and 120 mM at 10-15 min intervals) in normal Krebs' medium, then exposed to L-type Ca^2+ agonists for 20-30 min and subsequently stimulated with high [K^+]O (10, 30 and 120 mM) in the presence of the drugs. These provided the initial responses. Following this and in the continuous presence of the L-type Ca^2+ agonists, the tissues were exposed additionally to L-type Ca^2+ antagonists (conventional or diphenylalkylamines) or drug-free vehicle medium. After contact times of 25-50 min the tissues were stimulated, first with high [K^+]O (either 30 mM or 120 mM) in order to take account of the well-documented use-dependent action of the diphenylalkylamine Ca^2+ antagonists. Following recovery from the test contraction and after a further 30-40 min, the tissues were then stimulated with high [K^+]o (10, 30 and 120 mM). This protocol is illustrated in FIGS. 3 and 4. The resulting contractions were measured (see below) and expressed as a percentage of corresponding initial responses to high [K^+]o evoked in the presence of L-type Ca^2+ agonists (i.e. before exposure to L-type Ca^2+ antagonists). […] Subsequent analysis (see below) was between contractions of drug-treated tissues and time-matched controls • (c) Determine the inhibitory potencies (IC50 values) of various diphenylalkylamines and phenothiazines and conventional L-type Ca^2+ antagonists (nifedipine and methoxyverapamil) against contractions evoked in longitudinal and circular muscle of human vas deferens by high [K^+]o (120 mM) in the presence of FPL 64176. In these experiments, tissues were stimulated with high [K^+]o (120 mM); sequentially in normal Krebs' medium and after 25-30 min exposure to the L-type Ca^2+ agonist, FPL 64176, (1 μM, Initial response). […]

[2] = tested on: longitudinal muscle of human vas deferens; test: IC50 against contractions evoked by high K+ (120 mM) in the presence of FPL 64176, longitudinal muscle strips; conditions: Homo sapiens; contractions evoked by K+ (120 mM) in the presence of FPL 64176 (1 μM); means ± S.E.M.
From the text: as §1, §2

[3] = tested on: circular muscle of human vas deferens; test: Inhibition at fixed concentration of contractions evoked by high K+ in the presence of FPL 64176, circular muscle; conditions: [K+]o 30 mM in the presence of FPL 64176 (1.0 μM); drug 10 μM; hydrochloride
From the text: as §1
Tissues were equilibrated for 180 min in Krebs' medium containing inhibitors of extraneuronal and neuronal reuptake of noradrenaline, oestradiol (1 μM) and desipramine (0.1 μM) respectively, inhibitors of catechol-O-methyltransferase and monoamine oxidase, tropolone (10 μM) and iproniazid (10 μM) respectively and the β-adrenoceptor blocker, propranolol (1 μM). At the end of the equilibration period, the tissues were stimulated with noradrenaline (100 μM). […] After a contact time of 30-40 min in this medium, different experimental protocols (described below) were adopted in order to • (a) Elucidate the contractile actions of L-type Ca^2+ agonists such as FPL 64176 or Bay K 8644. In these experiments, tissues were exposed to FPL 64176 (0.1-10 μM added cumulatively) or in separate experiments Bay K 8644 (0.1-10 μM added cumulatively). • (b) Investigate the effects of various diphenylalkylamines and conventional L-type Ca^2+ antagonists (methoxyverapamil or nifedipine) on contractions evoked by high concentrations of extracellular potassium (high [K^+]o) in the presence of L-type Ca^2+ agonists, FPL 64176 (1 μM) or Bay K 8644 (1 μM). In this protocol, tissues were stimulated with high [K^+]O (10, 30 and 120 mM at 10-15 min intervals) in normal Krebs' medium, then exposed to L-type Ca^2+ agonists for 20-30 min and subsequently stimulated with high [K^+]O (10, 30 and 120 mM) in the presence of the drugs. These provided the initial responses. Following this and in the continuous presence of the L-type Ca^2+ agonists, the tissues were exposed additionally to L-type Ca^2+ antagonists (conventional or diphenylalkylamines) or drug-free vehicle medium. After contact times of 25-50 min the tissues were stimulated, first with high [K^+]O (either 30 mM or 120 mM) in order to take account of the well-documented use-dependent action of the diphenylalkylamine Ca^2+ antagonists. Following recovery from the test contraction and after a further 30-40 min, the tissues were then stimulated with high [K^+]o (10, 30 and 120 mM). This protocol is illustrated in FIGS. 3 and 4. The resulting contractions were measured (see below) and expressed as a percentage of corresponding initial responses to high [K^+]o evoked in the presence of L-type Ca^2+ agonists (i.e. before exposure to L-type Ca^2+ antagonists). […]

[4] = tested on: longitudinal muscle of human vas deferens; test: Inhibition of contractions evoked by high K+ in the presence of Bay K 8644, longitudinal muscle; conditions: [K+]o 30 mM & 120 mM in the presence of Bay K 8644 (1 μM)
Protocol: (§3) Human vas deferens specimens were obtained after elective vasectomies of healthy fertile men. College ethical approval and the consent of patients were obtained. The specimens were placed in ice-cold Krebs' medium, dissected-free of connective tissue/blood vessels and cut longitudinally into strips (longitudinal muscle preparations; 5-10 mm long & 1 mm wide) or transversely into rings (circular muscle preparations; 3 mm in length). […] Contractile responses were recorded via a Harvard-type force-displacement transducer. […]
(§4) Tissues were equilibrated for 180 min in Krebs' medium containing inhibitors of extraneuronal and neuronal reuptake of noradrenaline, oestradiol (1 μM) and desipramine (0.1 μM) respectively, inhibitors of catechol-O-methyltransferase and monoamine oxidase, tropolone (10 μM) and iproniazid (10 μM) respectively and the β-adrenoceptor blocker, propranolol (1 μM). […] The resulting contractions were measured (see below) and expressed as a percentage of corresponding initial responses to high [K^+]o evoked in the presence of L-type Ca^2+ agonists (i.e. before exposure to L-type Ca^2+ antagonists). […]

[5] = tested on: circular muscle of human vas deferens; test: Inhibition of contractions evoked by high K+ in the presence of Bay K 8644, circular muscle; conditions: [K+]o 30 mM & 120 mM in the presence of Bay K 8644 (1 μM)
Protocol: as §3, §4

Compound | IC50 [1] [µM] | IC50 [2] [nM] | inhibition of circular muscle contractions compared to time-matched controls [3] [%] | inhibition of longitudinal muscle contractions relative to time-matched controls ([4]; drug 10 μM) | inhibition of circular muscle contractions relative to time-matched controls ([5]; drug 10 μM) | inhibition at 1 µM ([4]; Homo sapiens, drug 1 μM, read-out: inhibition of longitudinal muscle contractions relative to time-matched controls) [%] | inhibition at 1 µM ([5]; Homo sapiens, drug 1 μM, read-out: inhibition of circular muscle contractions relative to time-matched controls) [%]
CC(NCCC(c1ccccc1)c1ccccc1)c1ccccc1 (stereo not drawn) [Fendiline, fendiline hydrochloride] | 17.4 ± 5.8 | 3800 ± 900 | 35 | 73-80% | 0-20% | – | –
COC(=O)C1=C(C)NC(C)=C(C(=O)OC)C1c1ccccc1[N+](=O)[O-] [Nifedipine, nifedipine] | 0.00219 ± 0.0005 | 2.16 ± 0.8 | – | – | – | 66 to 73 | 66 to 73
